Test [1] deals with N. gonorrhoeae ATCC 49226. Description: MIC assay for N. gonorrhoeae, broth microdilution in Todd-Hewitt (TH) broth. The class given is cell-based. To be noted: Neisseria gonorrhoeae, ATCC49226; Antibacterial Activity against N. gonorrhoeae ATCC 49226 in TH. From the text:
MIC assays for N. gonorrhoeae were done using the ATCC 49226 strain. The procedure guidelines recommended by the Clinical and Laboratory Standards Institute (CLSI) for the broth microdilution MIC assay were modified by substituting […]. Also, the recommended bacterial inoculum was modified to meet the high inoculum demands needed for N. gonorrhoeae growth. A 96-well plate containing TH broth with 2-fold serial dilution of compounds was inoculated with log-phase bacterial at 2.5×10^7 CFU/mL. The final volume in each well was 200 μL. Each compound was tested in duplicate. The microtiter plates were incubated in an […] environment for 24 hours at 37° C. using the candle jar technique. Then the bacterial growth was tested by reading the plate with a SpectraMax iD5 plate reader (Molecular Devices, Inc.) at 600 nm. The MIC was defined as the lowest compound concentration that inhibited bacteria growth.

Another test deals with P. aeruginosa ATCC 27853. Description: MIC assay, CLSI broth microdilution in CAMH broth. The test is classed as cell-based, Pseudomonas aeruginosa. To be noted: P. aeruginosa ATCC 278538. On the procedure: (§1) MIC assays for various Gram-negative and Gram-positive strains were conducted in accordance with the CLSI guidelines for broth microdilution. A 96-well plate containing CAMH broth with 2-fold serial dilution of compounds was inoculated with log-phase bacterial at 5×10^5 CFU/mL. The final volume in each well was 100 μL. Each compound was tested in duplicate. The microtiter plates were incubated in an aerobic environment for 18 hours at 37° C. Then the bacterial growth was tested by reading the plate with a SpectraMax iD5 plate reader (Molecular Devices, Inc.) at 600 nm. The MIC was defined as the lowest compound concentration that inhibited bacteria growth.
(§2) The following Gram-negative and Gram-positive strains were used in the aerobic MIC procedure: • P. aeruginosa ATCC 27853 • A. baumannii ATCC 19606 • E. coli ATCC 25922 • E. coli W4573 • E. coli N43 • K. pneumoniae ATCC 10031 • K. pneumoniae ATCC 13883 • S. sonnei ATCC 29930 • P. mirabilis ATCC 29906 • Methicillin-susceptible S. aureus (MSSA) ATCC 19636 • Methicillin-resistant S. aureus (MRSA) ATCC 33951

For a further test, the system named is E. coli W4573. Put plainly: MIC assay, CLSI broth microdilution in CAMH broth. The class given is cell-based, Escherichia coli. The method, then: as §1, §2
A further test has as its system K. pneumoniae ATCC 10031. Description: MIC assay, CLSI broth microdilution in CAMH broth. Particulars: K. pneumonias ATCC 10031. The class given is cell-based, Klebsiella pneumoniae. The method, then: as §1, §2
The next test has as its system K. pneumoniae ATCC 13883. Description: MIC assay, CLSI broth microdilution in CAMH broth. To be noted: K. pneumonias ATCC 13883. The class given is cell-based, Klebsiella pneumoniae. The method, then: as §1, §2
Another test relates to P. mirabilis ATCC 29906. Put plainly: MIC assay, CLSI broth microdilution in CAMH broth. The class given is cell-based, Proteus mirabilis. The method, then:
as §1, §2

In test [2] the test system is Methicillin-susceptible S. aureus (MSSA) ATCC 19636. Put plainly: MIC assay, CLSI broth microdilution in CAMH broth. The class given is cell-based, Staphylococcus aureus. On the procedure: as §1, §2
In test [3] the test system is Methicillin-resistant S. aureus (MRSA) ATCC 33591. Description: MIC assay, CLSI broth microdilution in CAMH broth. The test is classed as cell-based, Staphylococcus aureus. On the procedure: as §1, with “growth. […]” for “growth.”
The subject of the next test is E. coli N43. Description: MIC assay, CLSI broth microdilution in CAMH broth. The test is classed as cell-based, Escherichia coli. The method, then:
as §1, §2

SMILES strings stand for the structures. ≈ marks a conversion by molar mass, not a printed value.

In test [1], `Nc1nc(N)c2ccc3c(ccn3Cc3cc(Br)ccc3F)c2n1` [Example 34, 7-(5-bromo-2-fluorobenzyl)-7H-pyrrolo[2,3-h]quinazoline-2,4-diamine] came in with an MIC of 16 µg/mL (≈ 41.4 µM). The “Intrinsic MIC in CAMH” value with P. aeruginosa ATCC 27853 is recorded as >64¤; with E. coli W4573, 2¤; with K. pneumoniae ATCC 10031 it was <0.125¤; in the test with K. pneumoniae ATCC 13883, 64¤; in the test on P. mirabilis ATCC 29906 it was 64¤; in test [2], ≤0.063¤. Further, in test [3], the “Intrinsic MIC in CAMH” value is reported as ≤0.063¤.
Compound `Nc1nc(N)c2ccc3c(ccn3Cc3ccc(Br)cc3Br)c2n1` [Example 35, 7-(2,4-dibromobenzyl)-7H-pyrrolo[2,3-h]quinazoline-2,4-diamine] showed an MIC in [1] of 4 µg/mL (≈ 8.95 µM). Further, the “Intrinsic MIC in CAMH” value in the test with P. aeruginosa ATCC 27853 is given as >64¤; with E. coli N43 it was <0.125¤; with E. coli W4573, 8¤; in the test on K. pneumoniae ATCC 10031, 0.25¤; with K. pneumoniae ATCC 13883, >64¤; in the test on P. mirabilis ATCC 29906 it was >64¤. The “Intrinsic MIC in CAMH” value in test [2] was 0.5¤; in [3] it was 1¤.
The compound `N#Cc1ccccc1-c1ccc(Cn2ccc3c4nc(N)nc(N)c4ccc32)cc1F` [Example 38, 4′-((2,4-diamino-7H-pyrrolo[2,3-h]quinazolin-7-yl)methyl)-2′-fluoro-[1,1′-biphenyl]-2-carbonitrile] had an MIC in test [1] of 0.125 µg/mL (≈ 0.306 µM). Moreover, the “Intrinsic MIC in CAMH” value in the test with P. aeruginosa ATCC 27853 is >64¤; in the test with E. coli W4573, 1¤; with K. pneumoniae ATCC 10031 it was <0.125¤; in the test on K. pneumoniae ATCC 13883, 16¤; in the test on P. mirabilis ATCC 29906 it was >64¤; in test [2] it was ≤0.063¤. Also, the “Intrinsic MIC in CAMH” value in [3] was ≤0.063¤.
Consider `N#Cc1ccccc1-c1ccc(Cn2ccc3c4nc(N)nc(N)c4ccc32)c(F)c1` [Example 39, 4′-((2,4-diamino-7H-pyrrolo[2,3-h]quinazolin-7-yl)methyl)-3′-fluoro-[1,1′-biphenyl]-2-carbonitrile], for which the “Intrinsic MIC in CAMH” value in the test on P. aeruginosa ATCC 27853 is >64¤; with E. coli N43, ≤0.063¤; in the test with E. coli W4573, 8¤; in the test with K. pneumoniae ATCC 10031 it was 1¤; in the test with K. pneumoniae ATCC 13883, >64¤; in the test with P. mirabilis ATCC 29906, >64¤. Further, the “Intrinsic MIC in CAMH” value in [2] and in [3] was ≤0.063¤ each time.
`Nc1nc(N)c2ccc3c(ccn3CC#Cc3ccccc3)c2n1` [Example 41, 7-(3-phenylprop-2-yn-1-yl)-7H-pyrrolo[2,3-h]quinazoline-2,4-diamine] came in with an MIC in test [1] of 8 µg/mL (≈ 25.5 µM). Moreover, the “Intrinsic MIC in CAMH” value was >64¤ in the test with P. aeruginosa ATCC 27853; 2¤ in the test with E. coli W4573; <0.125¤ with K. pneumoniae ATCC 10031; 8¤ in the test on K. pneumoniae ATCC 13883; >64¤ in the test on P. mirabilis ATCC 29906; 0.5¤ in test [2]. Further, in test [3], the “Intrinsic MIC in CAMH” value is recorded as 1¤.
In the case of `C#Cc1ccc(Cn2ccc3c4nc(N)nc(N)c4ccc32)cc1` [Example 42, 7-(4-ethynylbenzyl)-7H-pyrrolo[2,3-h]quinazoline-2,4-diamine], 8 µg/mL (≈ 25.5 µM) was the least that counted as inhibitory in test [1] (MIC). The “Intrinsic MIC in CAMH” value with P. aeruginosa ATCC 27853 was >64¤; in the test on E. coli W4573, 4¤; with K. pneumoniae ATCC 10031, <0.125¤; in the test with K. pneumoniae ATCC 13883, 32¤; in the test with P. mirabilis ATCC 29906, 32¤; in test [2], ≤0.063¤. In addition, the “Intrinsic MIC in CAMH” value in [3] was ≤0.063¤.
For the compound `Nc1nc(N)c2ccc3c(ccn3Cc3cccc(C#Cc4ccccc4)c3)c2n1` [Example 44, 7-(3-(phenylethynyl)benzyl)-7H-pyrrolo[2,3-h]quinazoline-2,4-diamine], the “Intrinsic MIC in CAMH” value in the test on P. aeruginosa ATCC 27853 is >64¤; in the test on E. coli N43, 4¤; in the test with E. coli W4573 it was >64¤; with K. pneumoniae ATCC 10031, 32¤; with K. pneumoniae ATCC 13883, >64¤; in the test with P. mirabilis ATCC 29906, >64¤. For the same compound, the “Intrinsic MIC in CAMH” value in [2] is reported as 2¤; in [3], 1¤.
As for `Nc1nc(N)c2ccc3c(ccn3Cc3cccc(C#Cc4ccccc4C(F)(F)F)c3)c2n1` [Example 45, 7-(3-((2-(trifluoromethyl)phenyl)ethynyl)benzyl)-7H-pyrrolo[2,3-h]quinazoline-2,4-diamine], the “Intrinsic MIC in CAMH” value is listed as >64¤ in the test on P. aeruginosa ATCC 27853; 32¤ in the test with E. coli N43; >64¤ in the test with E. coli W4573; >64¤ in the test on K. pneumoniae ATCC 10031; >64¤ with K. pneumoniae ATCC 13883; >64¤ with P. mirabilis ATCC 29906. Besides, the “Intrinsic MIC in CAMH” value in test [2] and in test [3] was 2¤ in each case.
Take `N#Cc1ccccc1-c1ccc(Cn2ccc3c4nc(N)nc(N)c4cnc32)cc1` [Example 49, 4′-((2,4-diamino-7H-pyrrolo[3′,2′:5,6]pyrido[4,3-d]pyrimidin-7-yl)methyl)-[1,1′-biphenyl]-2-carbonitrile]: the “Intrinsic MIC in CAMH” value in the test with P. aeruginosa ATCC 27853 is >64¤; with E. coli N43, <0.125¤; in the test on E. coli W4573, >64¤; with K. pneumoniae ATCC 10031, 0.5¤; in the test on K. pneumoniae ATCC 13883 it was >64¤; with P. mirabilis ATCC 29906, >64¤. The “Intrinsic MIC in CAMH” value in test [2] and in test [3] was ≤0.063¤ in each case.
Take `Nc1nc(N)c2cnc3c(ccn3Cc3cccc(Br)c3)c2n1` [Example 50, 7-(3-bromobenzyl)-7H-pyrrolo[3′,2′:5,6]pyrido[4,3-d]pyrimidine-2,4-diamine]: the “Intrinsic MIC in CAMH” value is >64¤ in the test with P. aeruginosa ATCC 27853; ≤0.063¤ in the test with E. coli N43; 32¤ in the test on E. coli W4573; 1¤ in the test with K. pneumoniae ATCC 10031; >64¤ with K. pneumoniae ATCC 13883; >64¤ with P. mirabilis ATCC 29906. In addition, the “Intrinsic MIC in CAMH” value in test [2] and in test [3] was ≤0.063¤ each time.
`N#Cc1ccccc1-c1ccc(Cn2ccc3c4nc(N)nc(N)c4cnc32)cc1F` [Example 51, 4′-((2,4-diamino-7H-pyrrolo[3′,2′:5,6]pyrido[4,3-d]pyrimidin-7-yl)methyl)-2′-fluoro-[1,1′-biphenyl]-2-carbonitrile]: the results for the “Intrinsic MIC in CAMH” value (in the test on P. mirabilis ATCC 29906; in test [2]; in test [3]) were >64¤, ≤0.063¤ and ≤0.063¤, respectively.
For `N#Cc1ccccc1-c1ccc(CNc2nc(N)c3cnc4c(ccn4Cc4ccc(-c5ccccc5C#N)c(F)c4)c3n2)cc1F` [Example 52, 4′-((4-amino-2-(((2′-cyano-2-fluoro-[1,1′-biphenyl]-4-yl)methyl)amino)-7H-pyrrolo[3′,2′:5,6]pyrido[4,3-d]pyrimidin-7-yl)methyl)-2′-fluoro-[1,1′-biphenyl]-2-carbonitrile], the “Intrinsic MIC in CAMH” value (in the test with P. mirabilis ATCC 29906; in [2]; in test [3]) was >64¤ in each case.
In the case of `C#Cc1ccc(Cn2ccc3c4nc(N)nc(N)c4cnc32)cc1` [Example 53, 7-(4-ethynylbenzyl)-7H-pyrrolo[3′,2′:5,6]pyrido[4,3-d]pyrimidine-2,4-diamine], the “Intrinsic MIC in CAMH” value is given as >64¤ in the test with P. mirabilis ATCC 29906, ≤0.063¤ in test [2] and ≤0.063¤ in [3].

The values are drawn from patent US20240317749A1, “THERAPEUTIC COMPOUNDS” (priority 2021, published 2024).
